Laboratory results: PubChem BioAssay (NCI)
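Briefly, cells in 96-well plates were exposed to five compound concentrations for 48 h, and endpoints were estimated by linear interpolation. Definition used: TGI = concentration required for complete inhibition of growth.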

What was measured:
Experiment in all cases: NCI tumour cell line growth inhibition, 48 h
[1] = tested on: P388 leukemia
[2] = tested on: T-47D breast
[3] = tested on: HS 578T breast

Structure (SMILES)	TGI [1] [µM]	TGI [2] [µM]	TGI [3] [µM]
CCCCCCCC/C=C\CCCCCCCCCCCC(=O)O	51.6		
N=c1nnc2ccc(Cl)cc2n1O		> 100	> 100
Nc1c(S(=O)(=O)O)cc2cc(S(=O)(=O)O)ccc2c1N=Nc1ccc(-c2ccc(N=Nc3c(N)c(S(=O)(=O)O)cc4cc(S(=O)(=O)O)ccc34)c(S(=O)(=O)O)c2)cc1	> 100		
CCN(CC)CCNC(=O)c1cc2cc(NC(=O)c3cc4cc([N+](=O)[O-])ccc4[nH]3)ccc2[nH]1		> 100	
